Measured values taken from article PMC11327210, “A first-in-human phase I trial of daily oral zelenirstat, a N-myristoyltransferase inhibitor, in patients with advanced solid tumors and relapsed/refractory B-cell lymphomas” (Investigational New Drugs, 2024).

How the values were obtained:
[1] = test system: cell line derived xenografts from breast carcinomas; set-up: method as in PMID 33398478; details: mice-bearing established human tumor xenografts; cited from earlier work
human AML = test system: human AML; set-up: method as in doi:10.1182/blood-2022-170544; details: murine tail-vein injection models of human AML; cited from earlier work
off-target kinase = test system: off-target kinase; set-up: method as in doi:10.1182/blood-2019-124934; details: cited from earlier work
[2] = test system: patient derived xenograft models of refractory DLBCL; set-up: method as in PMID 33093447; details: cited from earlier work
dogs = details: dog, in vivo; cited from earlier work
[3] = set-up: method as in Pacylex, data on file; details: preclinical models; ref Pacylex, data on file; cited from earlier work
[4] = Plasma pharmacokinetics in phase I patients (UPLC-MS/MS); details: beyond Day 15
Description: Peripheral blood samples were collected over six time points in the first 8 h of Cycle 1, Day 1 (C1D1), and again on C1D15. Pre-treatment Day 1 levels were obtained with every subsequent cycle.

[5] = test system: cell line derived xenografts from lung carcinomas; set-up: method as in Pacylex Inc., data on file; details: mice-bearing established human tumor xenografts, ref Pacylex Inc., data on file; cited from earlier work
[6] = test system: ADP-ribosylation factor 6 (ARF6); set-up: method as in Pacylex, data on file; details: cultured colon cancer cells; ref Pacylex, data on file; cited from earlier work
[7] = test system: patients with advanced solid tumors and relapsed/refractory (R/R) B-cell lymphomas; test: Phase I dose escalation: safety, DLT, MTD/RP2D (NCI-CTCAE v5.0); type: in vivo; details: for Grade ≥ 3 treatment-related adverse events: Hypophosphatemia / Grade ≥ 3 treatment-related adverse events: Metabolism and nutrition disorders / Grade ≥ 3 treatment-related adverse events: Nausea / No. of pts with Gr ≥ 3 TRAEs: daily oral
From the text: A standard 3 + 3 design was used to assess for MTD and establish RP2D according to a pre-determined dose-escalation schema (Table 1). There was no intra-patient dose escalation. The MTD was defined as the dose level below the cohort in which 2 or more patients experienced a first cycle, zelenirstat attributable, dose-limiting toxicity (DLT), and the MTD required confirmation in at least 6 patients.
DLT was defined as any of the following: Grade (Gr) 4 thrombocytopenia, Gr 3 thrombocytopenia with bleeding, Gr 4 neutropenia ≥ 7 days, febrile neutropenia, clinically significant ≥ Gr 3 non-hematologic toxicity, or any significant toxicity warranting a withhold of zelenirstat. […] Toxicity was graded according to the National Cancer Institute Common Toxicity Criteria for Adverse Events (NCI-CTCAE) version 5.0.
For dose escalation, patients received daily oral zelenirstat on 28-day cycles. It was administered as 10 mg and 70 mg capsules, with instructions to take on an empty stomach each morning with 250 ml of tap water. Patients received zelenirstat until progressive disease, unacceptable toxicity, or withdrawal of consent.
Baseline imaging and hematology and blood chemistry were obtained within 4 weeks and 1 week of study entry, respectively. Baseline screening included a complete medical history, physical examination, assessment of ECOG performance status, and body weight. CT imaging was used for advanced solid tumors and B-cell NHL; PET-CT was optional for B-cell NHL. Weekly complete blood counts with white blood cell differentiation and blood chemistries were drawn for the first cycle, biweekly for cycle 2, and then prior to each 28-day cycle. Adverse events were evaluated weekly in the first cycle, biweekly for cycle 2, and before each subsequent cycle using the NCI-CTCAE version 5.0.

[8] = oral once daily, 28-day cycles, patients

## Cc1c(NS(=O)(=O)c2c(Cl)cc(-c3ccnc(N4CCNCC4)c3)cc2Cl)c(CC(C)C)nn1C [zelenirstat]
[1]
  xenograft tumor response: tumor growth inhibition
Human AML
  leukemic cell burden: reduced the leukemic cell burden
off-target kinase
  off-target kinase inhibition: no relevant off-target kinase inhibition
[2]
  xenograft tumor response: profound tumor regression and complete remissions
dogs
  toxicities in formal toxicologic evaluation: acute gastrointestinal and hematologic toxicities
[3]
  oral bioavailability: high oral bioavailability
[4]
  accumulation over multiple cycles (pre-dose concentrations): no accumulation was apparent beyond Day 15
[5]
  xenograft tumor response: tumor growth inhibition
[6]
  myristoylation of ARF6: inhibits the myristoylation
[7]; 20 mg (N = 3)
  Grade ≥ 3 treatment-related adverse events: Hypophosphatemia: 0 n, %
  Grade ≥ 3 treatment-related adverse events: Metabolism and nutrition disorders: 0 n, %
  Grade ≥ 3 treatment-related adverse events: Nausea: 0 n, %
  No. of pts with Gr ≥ 3 TRAEs: 0 n, %
[7]; 40 mg (N = 3)
  Grade ≥ 3 treatment-related adverse events: Hypophosphatemia: 0 n, %
  Grade ≥ 3 treatment-related adverse events: Metabolism and nutrition disorders: 0 n, %
  Grade ≥ 3 treatment-related adverse events: Nausea: 0 n, %
  No. of pts with Gr ≥ 3 TRAEs: 0 n, %
[7]; 70 mg (N = 3)
  Grade ≥ 3 treatment-related adverse events: Hypophosphatemia: 0 n, %
  Grade ≥ 3 treatment-related adverse events: Metabolism and nutrition disorders: 0 n, %
  Grade ≥ 3 treatment-related adverse events: Nausea: 0 n, %
  No. of pts with Gr ≥ 3 TRAEs: 1 (33) n, %
[7]; 100 mg (N = 5)
  Grade ≥ 3 treatment-related adverse events: Hypophosphatemia: 0 n, %
  Grade ≥ 3 treatment-related adverse events: Metabolism and nutrition disorders: 0 n, %
  Grade ≥ 3 treatment-related adverse events: Nausea: 0 n, %
  No. of pts with Gr ≥ 3 TRAEs: 0 n, %
[7]; 140 mg (N = 3)
  Grade ≥ 3 treatment-related adverse events: Hypophosphatemia: 0 n, %
  Grade ≥ 3 treatment-related adverse events: Metabolism and nutrition disorders: 0 n, %
  Grade ≥ 3 treatment-related adverse events: Nausea: 0 n, %
  No. of pts with Gr ≥ 3 TRAEs: 0 n, %
[7]; 210 mg (N = 7)
  Grade ≥ 3 treatment-related adverse events: Hypophosphatemia: 0 n, %
  Grade ≥ 3 treatment-related adverse events: Metabolism and nutrition disorders: 0 n, %
  Grade ≥ 3 treatment-related adverse events: Nausea: 0 n, %
  No. of pts with Gr ≥ 3 TRAEs: 0 n, %
[7]; 280 mg (N = 5)
  Grade ≥ 3 treatment-related adverse events: Hypophosphatemia: 1 (20) n, %
  Grade ≥ 3 treatment-related adverse events: Metabolism and nutrition disorders: 1 (20) n, %
  Grade ≥ 3 treatment-related adverse events: Nausea: 1 (20) n, %
  No. of pts with Gr ≥ 3 TRAEs: 4 (80) n, %
[7]; 280 mg daily cohort
  evaluable patients with first cycle dose-limiting gastrointestinal toxicities: Three
[7]; dose cohorts up to and including 210 mg
  neuropathy: No neuropathy was reported
[7]; dose cohorts up to and including 210 mg, resolved despite continuation at full dose
  Gr 2 thrombocytopenia, patients: 12%
[7]; [8]
  maximum tolerated dose (MTD): 210 mg
  recommended phase 2 dose (RP2D): 210 mg
[7]; pre- and post-dose ECG assessments, patients
  drug-induced QT prolongation: no evidence of drug-induced QT prolongation
[7]; six evaluable patients, 210 mg per day cohort
  first cycle (or any cycle) DLTs: absence of first cycle (or any cycle) DLTs
